Columns and labels:
[1] = target: Ribosomal protein S6 kinase alpha-3 (Homo sapiens) (UniProt P51812); details: Compound concentration 1000.0 nM
[2] = target: Leucine-rich repeat serine/threonine-protein kinase 2 (Homo sapiens) (UniProt Q5S007); details: Compound concentration 1000.0 nM
[3] = target: Activin receptor type-1B (Homo sapiens) (UniProt P36896); details: Compound concentration 1000.0 nM
[4] = target: Activated CDC42 kinase 1 (Homo sapiens) (UniProt Q07912); details: Compound concentration 1000.0 nM
[5] = target: Rhodopsin kinase GRK1 (Homo sapiens) (UniProt Q15835); details: Compound concentration 1000.0 nM
[6] = target: Proto-oncogene tyrosine-protein kinase ROS (Homo sapiens) (UniProt P08922); details: Compound concentration 1000.0 nM
Sequence of Proto-oncogene tyrosine-protein kinase ROS (Homo sapiens) (P08922 whole entry): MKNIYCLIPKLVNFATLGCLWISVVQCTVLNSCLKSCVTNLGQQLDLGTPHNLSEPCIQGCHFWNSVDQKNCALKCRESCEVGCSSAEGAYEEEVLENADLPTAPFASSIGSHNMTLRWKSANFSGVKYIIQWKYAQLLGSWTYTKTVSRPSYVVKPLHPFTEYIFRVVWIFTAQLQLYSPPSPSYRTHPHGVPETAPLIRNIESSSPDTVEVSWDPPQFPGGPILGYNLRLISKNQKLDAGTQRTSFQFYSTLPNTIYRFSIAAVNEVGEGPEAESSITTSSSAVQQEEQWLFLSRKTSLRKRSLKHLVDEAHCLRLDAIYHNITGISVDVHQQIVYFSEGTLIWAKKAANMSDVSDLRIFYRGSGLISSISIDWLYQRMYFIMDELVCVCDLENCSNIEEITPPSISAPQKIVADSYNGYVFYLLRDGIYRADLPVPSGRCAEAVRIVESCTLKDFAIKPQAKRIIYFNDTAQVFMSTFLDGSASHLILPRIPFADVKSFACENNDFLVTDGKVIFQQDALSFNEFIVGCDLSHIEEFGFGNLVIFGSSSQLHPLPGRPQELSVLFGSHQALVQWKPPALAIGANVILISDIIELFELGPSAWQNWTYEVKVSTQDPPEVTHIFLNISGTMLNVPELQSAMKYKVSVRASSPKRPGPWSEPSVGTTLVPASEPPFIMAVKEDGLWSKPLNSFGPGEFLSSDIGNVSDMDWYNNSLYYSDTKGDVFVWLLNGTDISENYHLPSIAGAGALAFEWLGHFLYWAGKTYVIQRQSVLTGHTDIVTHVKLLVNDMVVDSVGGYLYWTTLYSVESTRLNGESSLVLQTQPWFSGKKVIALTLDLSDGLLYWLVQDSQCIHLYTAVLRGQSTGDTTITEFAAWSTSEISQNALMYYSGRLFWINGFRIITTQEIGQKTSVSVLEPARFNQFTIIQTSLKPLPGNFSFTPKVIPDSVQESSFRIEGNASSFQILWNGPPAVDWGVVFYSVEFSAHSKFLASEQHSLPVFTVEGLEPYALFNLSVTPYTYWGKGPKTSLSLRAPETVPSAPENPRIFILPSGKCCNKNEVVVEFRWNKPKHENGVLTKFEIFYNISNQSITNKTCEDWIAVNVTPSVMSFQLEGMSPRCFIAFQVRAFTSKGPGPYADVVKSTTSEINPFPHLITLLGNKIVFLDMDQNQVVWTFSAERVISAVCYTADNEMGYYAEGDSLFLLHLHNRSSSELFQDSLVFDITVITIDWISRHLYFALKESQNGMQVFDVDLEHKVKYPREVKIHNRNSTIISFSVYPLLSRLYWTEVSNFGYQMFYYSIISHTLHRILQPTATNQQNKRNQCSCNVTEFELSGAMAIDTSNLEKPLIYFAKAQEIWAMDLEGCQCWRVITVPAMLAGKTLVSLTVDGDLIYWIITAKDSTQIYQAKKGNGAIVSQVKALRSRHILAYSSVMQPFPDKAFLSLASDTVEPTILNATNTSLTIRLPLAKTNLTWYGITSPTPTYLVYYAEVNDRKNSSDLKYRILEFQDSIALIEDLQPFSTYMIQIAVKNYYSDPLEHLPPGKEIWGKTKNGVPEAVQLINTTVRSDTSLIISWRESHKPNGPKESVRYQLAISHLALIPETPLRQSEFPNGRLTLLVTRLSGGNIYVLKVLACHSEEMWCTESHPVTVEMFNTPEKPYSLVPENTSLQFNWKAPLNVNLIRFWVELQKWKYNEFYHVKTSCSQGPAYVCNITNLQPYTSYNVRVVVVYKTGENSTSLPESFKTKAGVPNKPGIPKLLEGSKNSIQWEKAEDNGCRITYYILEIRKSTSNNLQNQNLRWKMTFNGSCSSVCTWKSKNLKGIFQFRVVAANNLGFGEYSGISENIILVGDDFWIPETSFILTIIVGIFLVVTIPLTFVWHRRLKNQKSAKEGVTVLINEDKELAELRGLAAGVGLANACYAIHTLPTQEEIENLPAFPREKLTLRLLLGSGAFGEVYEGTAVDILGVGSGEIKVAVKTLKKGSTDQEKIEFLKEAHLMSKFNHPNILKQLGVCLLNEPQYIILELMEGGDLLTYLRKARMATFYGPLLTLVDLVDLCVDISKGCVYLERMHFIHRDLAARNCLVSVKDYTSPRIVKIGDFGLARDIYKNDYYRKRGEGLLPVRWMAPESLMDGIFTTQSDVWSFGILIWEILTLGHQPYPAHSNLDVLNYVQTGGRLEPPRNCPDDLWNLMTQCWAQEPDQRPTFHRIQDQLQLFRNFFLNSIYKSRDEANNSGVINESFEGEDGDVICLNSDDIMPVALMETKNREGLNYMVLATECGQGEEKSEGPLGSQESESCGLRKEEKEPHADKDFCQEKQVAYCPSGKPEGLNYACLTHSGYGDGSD

[7] = target: Mitogen-activated protein kinase kinase kinase kinase 2 (Homo sapiens) (UniProt Q12851); details: Compound concentration 1000.0 nM
[8] = target: 5-hydroxytryptamine receptor 1E (Homo sapiens) (UniProt P28566); details: Compound concentration 10.0 uM
[9] = test system: Receptor-type tyrosine-protein kinase FLT3 (Homo sapiens), P36888 [D835Y]; details: Compound concentration 1000.0 nM
[10] = target: Mitogen-activated protein kinase kinase kinase kinase 1 (Homo sapiens) (UniProt Q92918); details: Compound concentration 1000.0 nM
[11] = target: Mitogen-activated protein kinase kinase kinase 15 (Homo sapiens) (UniProt Q6ZN16); details: Compound concentration 1000.0 nM
[12] = target: Mitogen-activated protein kinase 10 (Homo sapiens) (UniProt P53779); details: Compound concentration 1000.0 nM
[13] = target: Myosin light chain kinase, smooth muscle (Homo sapiens) (UniProt Q15746); details: Compound concentration 1000.0 nM
[14] = target: Serine/threonine-protein kinase VRK2 (Homo sapiens) (UniProt Q86Y07); details: Compound concentration 1000.0 nM
[15] = target: Ephrin type-A receptor 3 (Homo sapiens) (UniProt P29320); details: Compound concentration 1000.0 nM
[16] = target: Phosphorylase b kinase regulatory subunit alpha, liver isoform (Homo sapiens) (UniProt P46019); details: Compound concentration 1000.0 nM
[17] = target: Serine/threonine-protein kinase LATS1 (Homo sapiens) (UniProt O95835); details: Compound concentration 1000.0 nM
[18] = target: Mitogen-activated protein kinase kinase kinase 12 (Homo sapiens) (UniProt Q12852); details: Compound concentration 1000.0 nM
[19] = test system: Tyrosine-protein kinase ABL1 (Homo sapiens), P00519 [T315I]; details: Compound concentration 1000.0 nM
[20] = target: SRSF protein kinase 3 (Homo sapiens) (UniProt Q9UPE1); details: Compound concentration 1000.0 nM
Sequence of SRSF protein kinase 3 (Homo sapiens) (Q9UPE1 whole entry): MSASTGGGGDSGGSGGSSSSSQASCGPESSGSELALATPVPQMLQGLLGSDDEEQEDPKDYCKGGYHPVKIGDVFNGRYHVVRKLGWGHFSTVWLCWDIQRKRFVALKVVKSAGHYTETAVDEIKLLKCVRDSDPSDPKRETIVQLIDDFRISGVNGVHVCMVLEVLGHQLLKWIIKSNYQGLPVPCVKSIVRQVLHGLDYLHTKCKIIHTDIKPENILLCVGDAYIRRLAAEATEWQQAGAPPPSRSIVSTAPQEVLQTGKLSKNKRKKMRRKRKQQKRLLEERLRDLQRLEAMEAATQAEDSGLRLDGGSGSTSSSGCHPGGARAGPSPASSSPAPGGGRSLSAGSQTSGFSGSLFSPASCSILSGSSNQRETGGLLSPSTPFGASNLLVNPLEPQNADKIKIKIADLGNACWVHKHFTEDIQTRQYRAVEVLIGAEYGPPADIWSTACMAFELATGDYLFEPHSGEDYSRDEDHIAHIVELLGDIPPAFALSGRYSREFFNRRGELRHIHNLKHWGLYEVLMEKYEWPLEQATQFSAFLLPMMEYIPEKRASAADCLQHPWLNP

[21] = target: Calcium/calmodulin-dependent protein kinase type 1G (Homo sapiens) (UniProt Q96NX5); details: Compound concentration 1000.0 nM
Sequence of Calcium/calmodulin-dependent protein kinase type 1G (Homo sapiens) (Q96NX5 whole entry): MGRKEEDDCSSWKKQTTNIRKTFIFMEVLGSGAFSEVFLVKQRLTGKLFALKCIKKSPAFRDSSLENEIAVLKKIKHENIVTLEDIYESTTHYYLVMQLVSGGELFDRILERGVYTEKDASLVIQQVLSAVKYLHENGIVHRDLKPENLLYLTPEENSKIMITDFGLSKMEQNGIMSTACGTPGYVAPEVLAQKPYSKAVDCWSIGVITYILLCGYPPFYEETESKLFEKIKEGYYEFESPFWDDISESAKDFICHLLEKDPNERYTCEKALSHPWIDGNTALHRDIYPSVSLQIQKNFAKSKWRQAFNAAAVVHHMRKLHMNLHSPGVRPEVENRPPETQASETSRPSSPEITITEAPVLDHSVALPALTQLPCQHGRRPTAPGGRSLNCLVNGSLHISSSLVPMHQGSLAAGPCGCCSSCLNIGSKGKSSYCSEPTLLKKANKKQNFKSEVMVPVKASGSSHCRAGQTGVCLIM

[22] = target: Serine/threonine-protein kinase Nek3 (Homo sapiens) (UniProt P51956); details: Compound concentration 1000.0 nM
[23] = target: Epithelial discoidin domain-containing receptor 1 (Homo sapiens) (UniProt Q08345); details: Compound concentration 1000.0 nM
[24] = target: Cyclin-dependent kinase 2 homolog (Plasmodium falciparum (isolate 3D7)) (UniProt P61075); details: Compound concentration 1000.0 nM
[25] = target: Activin receptor type-2B (Homo sapiens) (UniProt Q13705); details: Compound concentration 1000.0 nM
[26] = target: Receptor-type tyrosine-protein kinase FLT3 (Homo sapiens) (UniProt P36888); details: Compound concentration 1000.0 nM
[27] = target: Dual specificity mitogen-activated protein kinase kinase 7 (Homo sapiens) (UniProt O14733); details: Compound concentration 1000.0 nM
[28] = target: Serine/threonine-protein kinase N2 (Homo sapiens) (UniProt Q16513); details: Compound concentration 1000.0 nM
[29] = target: Alpha-2C adrenergic receptor (Homo sapiens) (UniProt P18825); details: Compound concentration 10.0 uM
[30] = target: 5-hydroxytryptamine receptor 6 (Homo sapiens) (UniProt P50406); details: Compound concentration 10.0 uM
[31] = target: Discoidin domain-containing receptor 2 (Homo sapiens) (UniProt Q16832); details: Compound concentration 1000.0 nM
[32] = target: Serine/threonine-protein kinase DCLK3 (Homo sapiens) (UniProt Q9C098); details: Compound concentration 1000.0 nM
[33] = target: Mitogen-activated protein kinase kinase kinase 13 (Homo sapiens) (UniProt O43283); details: Compound concentration 1000.0 nM
[34] = target: Histamine H3 receptor (Homo sapiens) (UniProt Q9Y5N1); details: Compound concentration 10.0 uM
[35] = test system: Epidermal growth factor receptor (Homo sapiens), P00533 [L861Q]; details: Compound concentration 1000.0 nM
[36] = target: Cyclin-dependent kinase-like 3 (Homo sapiens) (UniProt Q8IVW4); details: Compound concentration 1000.0 nM
[37] = target: D(2) dopamine receptor (Homo sapiens) (UniProt P14416); details: Compound concentration 10.0 uM
Sequence of D(2) dopamine receptor (Homo sapiens) (P14416 whole entry): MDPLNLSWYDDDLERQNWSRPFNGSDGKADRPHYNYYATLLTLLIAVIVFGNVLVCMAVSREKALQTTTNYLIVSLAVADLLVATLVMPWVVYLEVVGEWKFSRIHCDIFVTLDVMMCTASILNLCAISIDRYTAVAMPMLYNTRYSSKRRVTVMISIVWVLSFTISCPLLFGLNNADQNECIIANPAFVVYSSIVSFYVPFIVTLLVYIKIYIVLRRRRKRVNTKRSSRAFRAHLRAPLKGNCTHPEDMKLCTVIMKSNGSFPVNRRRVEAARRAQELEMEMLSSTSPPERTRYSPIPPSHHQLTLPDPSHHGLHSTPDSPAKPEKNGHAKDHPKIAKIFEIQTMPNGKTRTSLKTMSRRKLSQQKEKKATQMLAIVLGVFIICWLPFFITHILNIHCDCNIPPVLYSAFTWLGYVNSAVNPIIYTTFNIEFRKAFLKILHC

[38] = target: Serine/threonine-protein kinase LATS2 (Homo sapiens) (UniProt Q9NRM7); details: Compound concentration 1000.0 nM
[39] = target: Casein kinase II subunit alpha' (Homo sapiens) (UniProt P19784); details: Compound concentration 1000.0 nM
[40] = target: Serine/threonine-protein kinase DCLK2 (Homo sapiens) (UniProt Q8N568); details: Compound concentration 1000.0 nM
[41] = target: Platelet-derived growth factor receptor alpha (Homo sapiens) (UniProt P16234); details: Compound concentration 1000.0 nM
Sequence of Platelet-derived growth factor receptor alpha (Homo sapiens) (P16234 whole entry): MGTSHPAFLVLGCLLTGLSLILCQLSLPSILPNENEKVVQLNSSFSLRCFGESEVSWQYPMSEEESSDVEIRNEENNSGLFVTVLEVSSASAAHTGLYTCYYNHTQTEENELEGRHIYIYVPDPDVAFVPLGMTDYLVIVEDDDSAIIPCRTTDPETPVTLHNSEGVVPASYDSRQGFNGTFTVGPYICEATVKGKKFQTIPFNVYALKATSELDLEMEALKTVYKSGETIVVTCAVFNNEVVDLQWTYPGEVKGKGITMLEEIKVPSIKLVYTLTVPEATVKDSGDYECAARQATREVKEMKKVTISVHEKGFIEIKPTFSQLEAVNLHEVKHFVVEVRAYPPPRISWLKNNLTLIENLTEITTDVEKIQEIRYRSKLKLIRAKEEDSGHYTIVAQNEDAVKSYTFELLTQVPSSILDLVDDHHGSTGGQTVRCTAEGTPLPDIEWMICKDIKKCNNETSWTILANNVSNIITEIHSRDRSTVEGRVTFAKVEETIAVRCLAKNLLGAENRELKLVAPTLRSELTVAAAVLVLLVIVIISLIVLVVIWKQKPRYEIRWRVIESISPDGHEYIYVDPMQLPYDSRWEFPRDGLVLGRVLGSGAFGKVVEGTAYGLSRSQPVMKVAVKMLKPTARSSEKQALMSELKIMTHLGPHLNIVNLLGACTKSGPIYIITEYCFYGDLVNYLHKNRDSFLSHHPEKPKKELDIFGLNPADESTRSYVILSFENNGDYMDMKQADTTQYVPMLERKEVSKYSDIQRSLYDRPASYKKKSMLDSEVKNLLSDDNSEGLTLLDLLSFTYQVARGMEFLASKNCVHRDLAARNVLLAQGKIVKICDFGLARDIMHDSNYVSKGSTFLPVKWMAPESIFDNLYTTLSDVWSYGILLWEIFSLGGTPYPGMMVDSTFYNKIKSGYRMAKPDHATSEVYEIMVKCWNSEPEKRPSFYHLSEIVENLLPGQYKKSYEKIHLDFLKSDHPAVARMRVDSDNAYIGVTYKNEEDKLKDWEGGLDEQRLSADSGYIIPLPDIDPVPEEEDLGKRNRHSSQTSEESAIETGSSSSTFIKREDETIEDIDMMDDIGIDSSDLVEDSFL

[42] = target: Serine/threonine-protein kinase 17A (Homo sapiens) (UniProt Q9UEE5); details: Compound concentration 1000.0 nM
[43] = target: Dual specificity mitogen-activated protein kinase kinase 3 (Homo sapiens) (UniProt P46734); details: Compound concentration 1000.0 nM
[44] = target: 5-hydroxytryptamine receptor 2A (Homo sapiens) (UniProt P28223); details: Compound concentration 10.0 uM
[45] = target: Ephrin type-A receptor 4 (Homo sapiens) (UniProt P54764); details: Compound concentration 1000.0 nM

Cc1nc(Cc2cccc(C(F)(F)F)c2)sc1-c1ccc(C(N)=O)nc1 [TP-024n]
inactive: residual activity [1] 100% | residual activity [2] 92% | residual activity [3] 75% | residual activity [4] 100% | residual activity [5] 98% | residual activity [6] 94% | residual activity [7] 100% | inhibition [8] 9.13% | residual activity [9] 92% | residual activity [10] 100% | residual activity [11] 100% | residual activity [12] 100% | residual activity [13] 95% | residual activity [14] 100% | residual activity [15] 88% | residual activity [16] 100% | residual activity [17] 100% | residual activity [18] 100% | residual activity [19] 100% | residual activity [20] 100% | residual activity [21] 99% | residual activity [22] 100% | residual activity [23] 100% | residual activity [24] 100% | residual activity [25] 86% | residual activity [26] 93% | residual activity [27] 100% | residual activity [28] 91% | inhibition [29] 8.38% | inhibition [30] 2.42% | residual activity [31] 100% | residual activity [32] 100% | residual activity [33] 100% | inhibition [34] 3.48% | residual activity [35] 100% | residual activity [36] 100% | inhibition [37] -5.26% | residual activity [38] 90% | residual activity [39] 96% | residual activity [40] 100% | residual activity [41] 88% | residual activity [42] 82% | residual activity [43] 93% | inhibition [44] 20.4% | residual activity [45] 100%

Cc1cc(-n2nc(Cc3cc(F)cc(C(F)(F)F)c3)nc2C)ccc1C(N)=O [TP-024]
inactive: residual activity [1] 95% | residual activity [2] 99% | residual activity [3] 93% | residual activity [4] 100% | residual activity [5] 87% | residual activity [6] 87% | residual activity [7] 100% | inhibition [8] 10.5% | residual activity [9] 100% | residual activity [10] 100% | residual activity [11] 100% | residual activity [12] 100% | residual activity [13] 100% | residual activity [14] 100% | residual activity [15] 94% | residual activity [16] 100% | residual activity [17] 100% | residual activity [18] 100% | residual activity [19] 98% | residual activity [20] 100% | residual activity [21] 100% | residual activity [22] 100% | residual activity [23] 86% | residual activity [24] 100% | residual activity [25] 100% | residual activity [26] 100% | residual activity [27] 100% | residual activity [28] 100% | inhibition [29] 9.76% | inhibition [30] 6.25% | residual activity [31] 100% | residual activity [32] 94% | residual activity [33] 100% | inhibition [34] 11.4% | residual activity [35] 100% | residual activity [36] 83% | inhibition [37] 0.68% | residual activity [38] 100% | residual activity [39] 91% | residual activity [40] 100% | residual activity [41] 100% | residual activity [42] 100% | residual activity [43] 100% | inhibition [44] 10.5% | residual activity [45] 96%
